Values quoted from earlier work as cited in patent US20100008866A1, “CIS-CYCLOHEXYL SUBSTITUTED PYRIMIDINONE DERIVATIVES” (Neurogen Corporation, priority 2006, published 2010).

Target: VR (Homo sapiens, UniProt Q8NER1)
Conditions: typically; no more than moderate affinity; read-out: Ki value (binds to VR)

Sequence of VR (Q8NER1 whole entry): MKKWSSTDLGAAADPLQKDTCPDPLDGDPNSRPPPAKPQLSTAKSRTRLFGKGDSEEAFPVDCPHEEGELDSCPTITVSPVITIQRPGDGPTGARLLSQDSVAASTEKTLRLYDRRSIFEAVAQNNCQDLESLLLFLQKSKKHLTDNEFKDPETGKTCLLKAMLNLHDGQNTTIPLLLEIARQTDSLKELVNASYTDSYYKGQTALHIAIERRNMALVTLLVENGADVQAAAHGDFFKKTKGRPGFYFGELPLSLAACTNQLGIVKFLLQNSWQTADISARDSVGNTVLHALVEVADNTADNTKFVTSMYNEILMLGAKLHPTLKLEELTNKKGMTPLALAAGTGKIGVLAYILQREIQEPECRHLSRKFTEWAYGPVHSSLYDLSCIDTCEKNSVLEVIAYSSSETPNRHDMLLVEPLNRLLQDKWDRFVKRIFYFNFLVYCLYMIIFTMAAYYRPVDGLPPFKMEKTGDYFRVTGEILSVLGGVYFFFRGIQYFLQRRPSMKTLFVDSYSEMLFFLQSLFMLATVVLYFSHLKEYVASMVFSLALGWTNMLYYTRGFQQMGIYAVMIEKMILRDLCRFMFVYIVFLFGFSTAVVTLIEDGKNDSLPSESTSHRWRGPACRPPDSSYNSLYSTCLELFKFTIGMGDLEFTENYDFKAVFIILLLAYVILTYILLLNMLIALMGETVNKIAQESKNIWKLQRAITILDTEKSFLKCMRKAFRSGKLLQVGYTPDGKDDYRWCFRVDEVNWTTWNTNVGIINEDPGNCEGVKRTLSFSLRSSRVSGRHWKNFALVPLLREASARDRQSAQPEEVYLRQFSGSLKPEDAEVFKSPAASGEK

Ki: ≥ 140 µM
SMILES: Cl.Cl.Cl.Cl.Cl.Cl.N.N.N.N.N.N.N.N.N.N.N.N.N.N.[O-2].[O-2].[Ru+3].[Ru+3].[Ru+4] [ruthenium red]
